{"source": "patent US11198713B2", "about": "“Agents modulating beta-catenin functions and methods thereof” (FOG PHARMACEUTICALS, INC., priority 2017, dated 2021)", "note": "pEC50: −log10 of the molar value.", "data": [{"target": "T1, full-length beta-catenin (Axin site) (Homo sapiens, UniProt P35222)", "T1 construct": "15 nM full-length beta-catenin, 20 nM FITC labeled peptide in buffer", "T1 sequence (P35222 1-781)": "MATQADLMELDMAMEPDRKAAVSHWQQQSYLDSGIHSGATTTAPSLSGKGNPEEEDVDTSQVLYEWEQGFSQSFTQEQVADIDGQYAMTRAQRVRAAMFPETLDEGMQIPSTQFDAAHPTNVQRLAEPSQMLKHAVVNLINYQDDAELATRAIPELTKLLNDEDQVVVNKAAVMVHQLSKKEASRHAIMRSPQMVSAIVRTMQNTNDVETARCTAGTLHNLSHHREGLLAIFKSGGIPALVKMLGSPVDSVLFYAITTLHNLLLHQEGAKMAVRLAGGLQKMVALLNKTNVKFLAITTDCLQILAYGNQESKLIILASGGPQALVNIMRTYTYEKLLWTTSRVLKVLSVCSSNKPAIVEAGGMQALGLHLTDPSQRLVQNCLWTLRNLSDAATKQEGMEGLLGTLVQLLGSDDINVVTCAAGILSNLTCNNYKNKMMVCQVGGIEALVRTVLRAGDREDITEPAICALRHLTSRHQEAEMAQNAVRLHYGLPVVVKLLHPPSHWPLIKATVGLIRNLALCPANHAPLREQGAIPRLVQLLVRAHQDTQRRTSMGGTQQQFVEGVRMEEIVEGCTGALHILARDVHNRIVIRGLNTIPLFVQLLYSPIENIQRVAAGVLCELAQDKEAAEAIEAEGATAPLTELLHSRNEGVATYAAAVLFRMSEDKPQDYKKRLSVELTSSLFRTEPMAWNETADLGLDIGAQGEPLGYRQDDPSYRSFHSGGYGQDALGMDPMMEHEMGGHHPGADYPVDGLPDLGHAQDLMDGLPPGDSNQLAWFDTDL", "test": "Competition fluorescence polarization assay (Axin site probe)", "assay_type": "binding", "conditions": "competition fluorescence polarization, Table 2; read-out: in vitro FP EC50", "outline": "(§1)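 Competition FP: 15 nM full-length β-catenin pre-incubated 5 min with 20 nM FITC-labelled stapled Axin-site peptide, then titrated peptide added (3-fold series from 5 μM) for 15 min in the dark. Buffer 50 mM Tris pH 8.0, 250 mM NaCl, 2% glycerol, 0.5 mM EDTA; duplicate reads.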", "values": [{"molecule": "CC[C@H](C)[C@@H]1NC(=O)[C@@](C)(NC(=O)[C@H](CCC(N)=O)NC(=O)[C@@H]2CCCN2C(C)=O)CCN(C)C(=O)OCC=CCCC[C@@](C)(C(=O)N[C@@H](Cc2c[nH]cn2)C(=O)N[C@H](C(=O)N[C@@H](CCCNC(=N)N)C(=O)N[C@@H](CCCNC(=N)N)C(=O)N[C@H](C(=O)N[C@@H](Cc2c[nH]c3ccccc23)C(=O)N[C@@H](CCCNC(=N)N)C(N)=O)C(C)C)C(C)C)NC(=O)[C@H](CC(=O)O)NC(=O)[C@H](CC(C)C)NC1=O", "note": "(single isomer, unassigned) [FP0779c, Ac-P-Q-MF-I-L-D-S5-H-V-R-R-V-W-R-NH2]", "pEC50": "5.30 to 6.30"}, {"molecule": "CC[C@H](C)[C@@H]1NC(=O)[C@@](C)(NC(=O)[C@H](CCC(N)=O)NC(=O)[C@@H]2CCCN2C(C)=O)CCCN(C)C(=O)OCC=CCCC[C@@](C)(C(=O)N[C@@H](Cc2c[nH]cn2)C(=O)N[C@H](C(=O)N[C@@H](CCCNC(=N)N)C(=O)N[C@@H](CCCNC(=N)N)C(=O)N[C@H](C(=O)N[C@@H](Cc2c[nH]c3ccccc23)C(=O)N[C@@H](CCCNC(=N)N)C(N)=O)C(C)C)C(C)C)NC(=O)[C@H](CC(=O)O)NC(=O)[C@H](CC(C)C)NC1=O", "note": "(single isomer, unassigned) [FP0780c, Ac-P-Q-MH-I-L-D-S5-H-V-R-R-V-W-R-NH2]", "pEC50": "5.30 to 6.30"}, {"molecule": "CC[C@H](C)[C@@H]1NC(=O)[C@](C)(NC(=O)[C@H](CCC(N)=O)NC(=O)[C@@H]2CCCN2C(C)=O)CCN(C)C(=O)OCC=CCCC[C@](C)(C(=O)N[C@@H](Cc2c[nH]cn2)C(=O)N[C@H](C(=O)N[C@@H](CCCNC(=N)N)C(=O)N[C@@H](CCCNC(=N)N)C(=O)N[C@H](C(=O)N[C@@H](Cc2c[nH]c3ccccc23)C(=O)N[C@@H](CCCNC(=N)N)C(N)=O)C(C)C)C(C)C)NC(=O)[C@H](CC(=O)O)NC(=O)[C@H](CC(C)C)NC1=O", "note": "(single isomer, unassigned) [FP0782c, Ac-P-Q-MG-I-L-D-R5-H-V-R-R-V-W-R-NH2]", "pEC50": "6.30 to 7.00"}, {"molecule": "CC[C@H](C)[C@@H]1NC(=O)[C@](C)(NC(=O)[C@H](CCC(N)=O)NC(=O)[C@@H]2CCCN2C(C)=O)CCCN(C)CC=CCCC[C@](C)(C(=O)N[C@@H](Cc2c[nH]cn2)C(=O)N[C@H](C(=O)N[C@@H](CCCNC(=N)N)C(=O)N[C@@H](CCCNC(=N)N)C(=O)N[C@H](C(=O)N[C@@H](Cc2c[nH]c3ccccc23)C(=O)N[C@@H](CCCNC(=N)N)C(N)=O)C(C)C)C(C)C)NC(=O)[C@H](CC(=O)O)NC(=O)[C@H](CC(C)C)NC1=O", "note": "(single isomer, unassigned) [FP0783a, Ac-P-Q-MI-I-L-D-R5-H-V-R-R-V-W-R-NH2]", "pEC50": "5.30 to 6.30"}, {"molecule": "CC[C@H](C)[C@@H]1NC(=O)[C@](C)(NC(=O)[C@H](CCC(N)=O)NC(=O)[C@@H]2CCCN2C(C)=O)CCCN(C)C(=O)OCC=CCCC[C@](C)(C(=O)N[C@@H](Cc2c[nH]cn2)C(=O)N[C@H](C(=O)N[C@@H](CCCNC(=N)N)C(=O)N[C@@H](CCCNC(=N)N)C(=O)N[C@H](C(=O)N[C@@H](Cc2c[nH]c3ccccc23)C(=O)N[C@@H](CCCNC(=N)N)C(N)=O)C(C)C)C(C)C)NC(=O)[C@H](CC(=O)O)NC(=O)[C@H](CC(C)C)NC1=O", "note": "(single isomer, unassigned) [FP0783c, Ac-P-Q-MI-I-L-D-R5-H-V-R-R-V-W-R-NH2]", "pEC50": "5.30 to 6.30"}]}, {"target": "T1, full-length beta-catenin (Axin site)", "test": "Competition fluorescence polarization assay (Axin site probe)", "assay_type": "binding", "conditions": "competition with FITC labeled Axin-site probe, 15 nM full-length beta-catenin; read-out: FP EC50", "outline": "as §1", "values": [{"molecule": "CC[C@H](C)[C@@H]1NC(=O)C2(NC(=O)[C@H](CCC(N)=O)NC(=O)[C@@H]3CCCN3C(C)=O)CN(C2)C(=O)OCC=CCC[C@](C)(C(=O)N[C@@H](Cc2c[nH]cn2)C(=O)N[C@H](C(=O)N[C@@H](CCCNC(=N)N)C(=O)N[C@@H](CCCNC(=N)N)C(=O)N[C@H](C(=O)N[C@@H](Cc2c[nH]c3ccccc23)C(=O)N[C@@H](CCCNC(=N)N)C(N)=O)C(C)C)C(C)C)NC(=O)[C@H](CC(=O)O)NC(=O)[C@H](CC(C)C)NC1=O", "note": "(single isomer, unassigned) [FP-0721c, Ac-P-Q-Az-I-L-D-R4-H-V-R-R-V-W-R-NH2]", "pEC50": 5.89}, {"molecule": "CC[C@H](C)[C@@H]1NC(=O)C2(NC(=O)[C@H](CCC(N)=O)NC(=O)[C@@H]3CCCN3C(C)=O)CN(C2)C(=O)OCC=CCCC[C@](C)(C(=O)N[C@@H](Cc2c[nH]cn2)C(=O)N[C@H](C(=O)N[C@@H](CCCNC(=N)N)C(=O)N[C@@H](CCCNC(=N)N)C(=O)N[C@H](C(=O)N[C@@H](Cc2c[nH]c3ccccc23)C(=O)N[C@@H](CCCNC(=N)N)C(N)=O)C(C)C)C(C)C)NC(=O)[C@H](CC(=O)O)NC(=O)[C@H](CC(C)C)NC1=O", "note": "(single isomer, unassigned) [FP-0723c, Ac-P-Q-Az-I-L-D-R5-H-V-R-R-V-W-R-NH2]", "pEC50": 5.85}, {"molecule": "CC[C@H](C)[C@@H]1NC(=O)C2(NC(=O)[C@H](CCC(N)=O)NC(=O)[C@@H]3CCCN3C(C)=O)CN(CC=CCCCC[C@](C)(C(=O)N[C@@H](Cc3c[nH]cn3)C(=O)N[C@H](C(=O)N[C@@H](CCCNC(=N)N)C(=O)N[C@@H](CCCNC(=N)N)C(=O)N[C@H](C(=O)N[C@@H](Cc3c[nH]c4ccccc34)C(=O)N[C@@H](CCCNC(=N)N)C(N)=O)C(C)C)C(C)C)NC(=O)[C@H](CC(=O)O)NC(=O)[C@H](CC(C)C)NC1=O)C2", "note": "(single isomer, unassigned) [FP-0725, Ac-P-Q-Az-I-L-D-R6-H-V-R-R-V-W-R-NH2]", "pEC50": 6.24}, {"molecule": "CC[C@H](C)[C@@H]1NC(=O)[C@@](C)(NC(=O)[C@H](CCC(N)=O)NC(=O)[C@@H]2CCCN2C(C)=O)CCCC=CCN2CC(C(=O)N[C@@H](Cc3c[nH]cn3)C(=O)N[C@H](C(=O)N[C@@H](CCCNC(=N)N)C(=O)N[C@@H](CCCNC(=N)N)C(=O)N[C@H](C(=O)N[C@@H](Cc3c[nH]c4ccccc34)C(=O)N[C@@H](CCCNC(=N)N)C(N)=O)C(C)C)C(C)C)(C2)NC(=O)[C@H](CC(=O)O)NC(=O)[C@H](CC(C)C)NC1=O", "note": "(single isomer, unassigned) [FP-0734, Ac-P-Q-S5-I-L-D-Az-H-V-R-R-V-W-R-NH2]", "pEC50": "< 5.30"}, {"molecule": "CC[C@H](C)[C@@H]1NC(=O)[C@@](C)(NC(=O)[C@H](CCC(N)=O)NC(=O)[C@@H]2CCCN2C(C)=O)CCCC=CCOC(=O)N2CC(C(=O)N[C@@H](Cc3c[nH]cn3)C(=O)N[C@H](C(=O)N[C@@H](CCCNC(=N)N)C(=O)N[C@@H](CCCNC(=N)N)C(=O)N[C@H](C(=O)N[C@@H](Cc3c[nH]c4ccccc34)C(=O)N[C@@H](CCCNC(=N)N)C(N)=O)C(C)C)C(C)C)(C2)NC(=O)[C@H](CC(=O)O)NC(=O)[C@H](CC(C)C)NC1=O", "note": "(single isomer, unassigned) [FP-0734c, Ac-P-Q-S5-I-L-D-Az-H-V-R-R-V-W-R-NH2]", "pEC50": "< 5.30"}, {"molecule": "CC[C@H](C)[C@@H]1NC(=O)[C@@](C)(NC(=O)[C@H](CCC(N)=O)NC(=O)[C@@H]2CCCN2C(C)=O)CCCCCC=CCN2CC(C(=O)N[C@@H](Cc3c[nH]cn3)C(=O)N[C@H](C(=O)N[C@@H](CCCNC(=N)N)C(=O)N[C@@H](CCCNC(=N)N)C(=O)N[C@H](C(=O)N[C@@H](Cc3c[nH]c4ccccc34)C(=O)N[C@@H](CCCNC(=N)N)C(N)=O)C(C)C)C(C)C)(C2)NC(=O)[C@H](CC(=O)O)NC(=O)[C@H](CC(C)C)NC1=O", "note": "(single isomer, unassigned) [FP-0738, Ac-P-Q-S7-I-L-D-Az-H-V-R-R-V-W-R-NH2]", "pEC50": 6.70}, {"molecule": "CC[C@H](C)[C@@H]1NC(=O)[C@@](C)(NC(=O)[C@H](CCC(N)=O)NC(=O)[C@@H]2CCCN2C(C)=O)CCCCCC=CCOC(=O)N2CC(C(=O)N[C@@H](Cc3c[nH]cn3)C(=O)N[C@H](C(=O)N[C@@H](CCCNC(=N)N)C(=O)N[C@@H](CCCNC(=N)N)C(=O)N[C@H](C(=O)N[C@@H](Cc3c[nH]c4ccccc34)C(=O)N[C@@H](CCCNC(=N)N)C(N)=O)C(C)C)C(C)C)(C2)NC(=O)[C@H](CC(=O)O)NC(=O)[C@H](CC(C)C)NC1=O", "note": "(single isomer, unassigned) [FP-0738c, Ac-P-Q-S7-I-L-D-Az-H-V-R-R-V-W-R-NH2]", "pEC50": 5.74}]}]}
